{"source": "patent US6440965B1", "about": "“Substituted pyrimidine derivatives, their preparation and their use in the treatment of neurodegenerative or neurological disorders of the central nervous system” (Krenitsky Pharmaceuticals, Inc., priority 1997, dated 2002)", "data": [{"tested_on": "PC12 cells", "experiment": "Screen for NGF-like activity in cultured PC12 cells (neurite outgrowth, potentiation of NGF)", "type": "cell-based, rat", "details": "2 days incubation, with or without a limiting concentration of NGF", "procedure": "Cultured PC12 cells (rat adrenal pheochromocytoma from ATCC) have receptors for NGF. Responses include promotion of neurite outgrowth and elevation of choline acetyltransferase (ChAT) (L. A. Greene and A. S. Tischler, Cell Neurobiol., 3, 373 (1982)).\nThe following assay is substantially as described in H L White and P W Scates, Neurochem. Res., 16, 63 (1991). PC12 cells were cultured at 37° C. in DMEM supplemented with fetal bovine serum, horse serum, glutamine, penicillin, streptomycin and non-essential amino acids. Cultures were split 1:4 every 4 or 5 days. Exponentially dividing cells were plated in fresh medium on collagen-coated 12-well plastic dishes. After allowing one day for cell attachment, the medium was replaced with low serum medium, with or without test compounds and also with or without a limiting concentration of NGF, with each condition in triplicate. The medium may contain up to 0.1% ethanol, which was used as a solvent for most compounds being tested. Cells were examined daily for morphological changes using an Olympus IMT-2 inverted research microscope. After 2 days incubation with test compounds, cells and media were transferred to 1.5 mL Eppendorf tubes. Aliquots of 20 uL were reserved for cell counting and viability determination by trypan blue exclusion. The remaining cell suspensions were centrifuged, and the cell pellets were washed once in serum-free medium and finally resuspended in 30 uL of distilled water containing eserine, an inhibitor of acetylcholinesterase. The suspensions were stored at −80° C. until they were assayed for choline acetyltransferase. Compounds are judged NGF-like in this primary screen if they (1) increase the activity of choline acetyltransferase, (2) enhance NGF-stimulated neurite outgrowth or (3) potentiate and appear additive with the action of NGF itself.", "values": [{"compound": "Nc1ncc(Cc2ccc(Cl)cc2)c(NCCCCO)n1", "note": "[2-Amino-4-[2-(2-hydroxyethyl)ethylamino]-5-(4-chlorobenzyl)pyrimidine]", "NGF-like in vitro activity (ChAT increase, enhancement of NGF-stimulated neurite outgrowth and/or potentiation of NGF)": "especially potent activities"}, {"compound": "Nc1ncc(Oc2ccc(Cl)cc2)c(N2CCN(C=O)CC2)n1", "note": "[2-amino-5-(4-chlorophenoxy)-4-(4-formylpiperazino)pyrimidine]", "NGF-like in vitro activity (ChAT increase, enhancement of NGF-stimulated neurite outgrowth and/or potentiation of NGF)": "especially potent activities"}, {"compound": "CN1CCN(c2nc(N)ncc2Oc2ccc(Cl)cc2)CC1", "note": "[2-amino-5-(4-chlorophenoxy)-4-(4-methylpiperazino)pyrimidine]", "NGF-like in vitro activity (ChAT increase, enhancement of NGF-stimulated neurite outgrowth and/or potentiation of NGF)": "especially potent activities"}, {"compound": "Nc1ncc(Cc2ccc(Cl)cc2)c(N2CCC(O)CC2)n1", "note": "[2-Amino-5-(4-chlorobenzyl)-4-(4-hydroxypiperidino)pyrimidine]", "NGF-like in vitro activity (ChAT increase, enhancement of NGF-stimulated neurite outgrowth and/or potentiation of NGF)": "especially potent activities"}]}, {"tested_on": "PC-12 cells", "experiment": "not given", "details": "cited from earlier work", "values": [{"compound": "O=C(CCn1cnc2c(=O)[nH]cnc21)Nc1ccc(C(=O)O)cc1", "note": "[AIT-082, 4[[3-(1,6-dihydro-6-oxo-9-purin-9-yl)-1-oxopropyl]amino]benzoic acid]", "NGF action in cultured PC-12 cells": "enhance NGF action"}]}, {"tested_on": "working memory", "experiment": "not given", "details": "mice; cited from earlier work", "values": [{"compound": "O=C(CCn1cnc2c(=O)[nH]cnc21)Nc1ccc(C(=O)O)cc1", "note": "[AIT-082, 4[[3-(1,6-dihydro-6-oxo-9-purin-9-yl)-1-oxopropyl]amino]benzoic acid]", "age induced working memory deficits": "restore age induced working memory deficits"}]}, {"tested_on": "not given", "experiment": "not given", "details": "not given", "units": {"melting point": "°C"}, "values": [{"compound": "CC(=O)N1CCN(c2nc(N)ncc2Oc2ccc(Cl)cc2)CC1", "melting point": "153 to 157"}, {"compound": "Cl.Nc1ncc(Oc2ccc(Cl)cc2)c(NCCOCCO)n1", "melting point": "140 to 141"}, {"compound": "CN(C)c1nc(N)ncc1Cc1ccccc1", "melting point": "181 to 182"}, {"compound": "Nc1ncc(Oc2ccc(Cl)cc2)c(N2CCNCC2)n1", "melting point": "93 to 95"}, {"compound": "Nc1ncc(Oc2ccc(Cl)cc2)c(N2CCN(CCO)CC2)n1", "melting point": "121 to 123"}, {"compound": "Nc1ncc(Oc2ccc(Cl)cc2)c(N2CCOCC2)n1", "melting point": "138 to 140"}, {"compound": "CC(C)(C)C(=O)OCCN1CCN(c2nc(N)ncc2Oc2ccc(Cl)cc2)CC1", "melting point": "123 to 125"}, {"compound": "O=C(Nc1ccccc1)Nc1ncc(Oc2ccc(Cl)cc2)c(N2CCOCC2)n1", "melting point": "229 to 231"}]}]}
